Experimental data reported in patent publication US20240150293A1, “SPIROCYCLOHEXANE DERIVATIVES, PHARMACEUTICAL COMPOSITIONS CONTAINING THEM AND THEIR USES AS ANTI-APOPTOTIC INHIBITORS” (LES LABORATOIRES SERVIER, priority 2021, published 2024).
pIC50, pKi: −log10 of the molar value. Like-named read-outs stand apart in the source and are kept apart here.

Tests used:
NCI-H929 cell lines = assay: In vitro cytotoxicity, CellTiter-Glo (CTG) assay (Example B, Method B); type: cell-based; conditions: NCI-H929 cells, 48 h incubation, read-out: C50
Procedure, shortened: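 ATP-based luminescence (CellTiter-Glo) after 48 h incubation at 37° C., 5% CO2 gave NCI-H929 viability. Eleven concentrations tested, highest final 30 μM, dispensed acoustically from 10 mM DMSO stocks; C50 defined as concentration reaching 50% viability.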

[1] = molecular target: Cy5-labelled Mcl1 (amino acids 171-321) C286S protein (UniProtKB Q07820) (Homo sapiens (Human), UniProt Q07820, C286S); assay: Inhibition of Mcl-1 by the fluorescence quenching assay (Example A, Method B); type: binding
Cy5-labelled Mcl1 (amino acids 171-321) C286S protein, sequence (Q07820 171-321 C286S): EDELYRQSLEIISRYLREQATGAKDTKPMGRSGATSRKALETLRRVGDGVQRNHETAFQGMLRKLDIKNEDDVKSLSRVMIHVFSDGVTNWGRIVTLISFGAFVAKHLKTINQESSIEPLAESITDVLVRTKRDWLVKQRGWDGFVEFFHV
Procedure, shortened: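 Eleven-point compound series incubated 2 h at room temperature with 1 nM Cy5-tagged protein and quencher-labelled PUMA peptide at 10, 20 or 400 nM in HEPES/NaCl/Tween 20, pH 7.4, 5% DMSO. IC50 for 50% fluorescence increase by 4-parameter fit, then Ki derived (complete cKi or estimated eKi).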

pKi ([1]; Ki determined from IC50) | pKi [1] | inhibition at 1 µM ([1]; @ 1 μM, read-out: Mcl-1 inhibition, % at a single concentration) | Structure (SMILES) | pIC50 (NCI-H929 cell lines; Homo sapiens, NCI-H929, 48 h) | pIC50 (NCI-H929 cell lines)
9.23 | – | – | Cc1c(Cl)cccc1N[C@]1(C(=O)O)CC[C@]2(CC1)c1ccc(F)cc1CN2C[C@@H](C)COc1ccnc2c1[C@H](C)CCC2 [Example 52, (1s,4S)-4-(3-chloro-2-methylanilino)-5′-fluoro-2′-[(2R)-2-methyl-3-{[(5R)-5-methyl-5,6,7,8-tetrahydroquinolin-4-yl]oxy}propyl]-2′,3′-dihydrospiro[cyclohexane-1,1′-isoindole]-4-carboxylic acid] | 6.34 | –
– | 8.97 | – | C[C@@H](COc1ccnc2c1[C@H](C)CCC2)CC1=Cc2c(Cl)c(Cl)ccc2[C@]12CC[C@@](Nc1cccc(Cl)c1)(C(=O)O)CC2 [Example 750, (1r,4R)-4′,5′-dichloro-4-(3-chloroanilino)-2′-[(2R)-2-methyl-3-{[(5R)-5-methyl-5,6,7,8-tetrahydroquinolin-4-yl]oxy}propyl]spiro[cyclohexane-1,1′-indene]-4-carboxylic acid] | 6.42 | –
– | 9.91 | – | C[C@@H](COc1ccnc2c1[C@H](C)CCC2)C[C@H]1Cc2ccc(OCC3CC3)cc2[C@]12CC[C@@](Nc1cccc(Cl)c1)(C(=O)O)CC2 [Example 791, (1r,2′S,4S)-4-(3-chloroanilino)-6′-(cyclopropylmethoxy)-2′-[(2R)-2-methyl-3-{[(5R)-5-methyl-5,6,7,8-tetrahydroquinolin-4-yl]oxy}propyl]-2′,3′-dihydrospiro[cyclohexane-1,1′-indene]-4-carboxylic acid] | 6.72 | –
– | 9.62 | – | CC(C)COc1ccc2c(c1)[C@]1(CC[C@@](Nc3cccc(Cl)c3)(C(=O)O)CC1)[C@@H](C[C@@H](C)COc1ccnc3c1[C@H](C)CCC3)C2 [Example 788, (1r,2′S,4S)-4-(3-chloroanilino)-2′-[(2R)-2-methyl-3-{[(5R)-5-methyl-5,6,7,8-tetrahydroquinolin-4-yl]oxy}propyl]-6′-(2-methylpropoxy)-2′,3′-dihydrospiro[cyclohexane-1,1′-indene]-4-carboxylic acid] | 6.58 | –
– | 10.24 | – | C[C@@H](COc1ccnc2c1[C@H](C)CC[C@H]2F)C[C@H]1Cc2cc3c(cc2[C@]12CC[C@@](Nc1cccc(Cl)c1)(C(=O)O)CC2)OCCO3 [Example 964, (1r,4S,7′S)-4-(3-chloroanilino)-7′-[(2R)-3-{[(5R,8R)-8-fluoro-5-methyl-5,6,7,8-tetrahydroquinolin-4-yl]oxy}-2-methylpropyl]-2′,3′,7′,8′-tetrahydrospiro[cyclohexane-1,6′-indeno[5,6-b][1,4]dioxine]-4-carboxylic acid] | 6.96 | –
10.03 | – | – | C[C@@H](COc1ccnc2c1[C@H](C)CCC2)CN1Cc2cc3c(cc2[C@]12CC[C@@](Nc1ccc(F)c(Cl)c1)(C(=O)O)CC2)OCO3 [Example 47, (1s,4S)-4-(3-chloro-4-fluoroanilino)-6′-[(2R)-2-methyl-3-{[(5R)-5-methyl-5,6,7,8-tetrahydroquinolin-4-yl]oxy}propyl]-6′,7′-dihydro-2′H-spiro[cyclohexane-1,5′-[1,3]dioxolo[4,5-f]isoindole]-4-carboxylic acid] | 7.43 | –
– | 8.74 | – | C[C@@H](COc1ccnc2c1[C@H](C)CCC2)C[C@@H]1Cc2ccc(-c3cc[nH]c3)cc2[C@]12CC[C@@](Nc1cccc(Cl)c1)(C(=O)O)CC2 [Example 882, (1r,2′R,4R)-4-(3-chloroanilino)-2′-[(2R)-2-methyl-3-{[(5R)-5-methyl-5,6,7,8-tetrahydroquinolin-4-yl]oxy}propyl]-6′-(1H-pyrrol-3-yl)-2′,3′-dihydrospiro[cyclohexane-1,1′-indene]-4-carboxylic acid] | 5.89 | –
– | 10.52 | – | CC[C@@H]1COc2cc3c(cc2O1)[C@]1(CC[C@@](Nc2cccc(Cl)c2)(C(=O)O)CC1)[C@@H](C[C@@H](C)COc1ccnc2c1[C@H](C)CCC2)C3 [Example 979, (1r,3′R,4S,7′S)-4-(3-chloroanilino)-3′-ethyl-7′-[(2R)-2-methyl-3-{[(5R)-5-methyl-5,6,7,8-tetrahydroquinolin-4-yl]oxy}propyl]-2′,3′,7′,8′-tetrahydrospiro[cyclohexane-1,6′-indeno[5,6-b][1,4]dioxine]-4-carboxylic acid] | 7.17 | –
– | 8.61 | – | Cc1oc(=O)oc1COC(=O)[C@]1(Nc2cccc(Cl)c2)CC[C@@]2(CC1)c1cc3c(cc1C[C@@H]2C[C@@H](C)COc1ccnc2c1[C@H](C)CCC2)OCO3 [Example 938, (5-methyl-2-oxo-2H-1,3-dioxol-4-yl)methyl (1r,4S,6′S)-4-(3-chloroanilino)-6′-[(2R)-2-methyl-3-{[(5R)-5-methyl-5,6,7,8-tetrahydroquinolin-4-yl]oxy}propyl]-6′,7′-dihydro-2′H-spiro[cyclohexane-1,5′-indeno[5,6-d][1,3]dioxole]-4-carboxylate] | 7.35 | –
8.82 | – | – | Cc1ccc2c(c1)CN(C[C@@H](C)COc1ccnc3c1[C@H](C)CCC3)[C@]21CC[C@](Nc2cccc(Cl)c2C)(C(=O)O)CC1 [Example 53, (1s,4S)-4-(3-chloro-2-methylanilino)-5′-methyl-2′-[(2R)-2-methyl-3-{[(5R)-5-methyl-5,6,7,8-tetrahydroquinolin-4-yl]oxy}propyl]-2′,3′-dihydrospiro[cyclohexane-1,1′-isoindole]-4-carboxylic acid] | 6.35 | –

Second part, the compound before the results:

Structure (SMILES) | pKi ([1]; Ki determined from IC50) | pKi [1] | inhibition at 1 µM ([1]; @ 1 μM, read-out: Mcl-1 inhibition, % at a single concentration) | pIC50 (NCI-H929 cell lines; Homo sapiens, NCI-H929, 48 h) | pIC50 (NCI-H929 cell lines)
C[C@@H](COc1ccnc2c1[C@H](C)CCC2)C[C@H]1Cc2cc3c(cc2[C@]12CC[C@@](Nc1cccc(Cl)c1)(C(=O)O)CC2)OCC1(CCC1)CO3 [Example 995, (1″r,4″S,8′S)-4″-(3-chloroanilino)-8′-[(2R)-2-methyl-3-{[(5R)-5-methyl-5,6,7,8-tetrahydroquinolin-4-yl]oxy}propyl]-8′,9′-dihydro-2′H,4′H-dispiro[cyclobutane-1,3′-indeno[5,6-b][1,4]dioxepine-7′,1″-cyclohexane]-4″-carboxylic acid] | – | 10.05 | – | 6.97 | –
COc1ccccc1-c1ccc2c(c1)[C@]1(CC[C@@](Nc3cccc(Cl)c3)(C(=O)O)CC1)[C@@H](C[C@@H](C)COc1ccnc3c1[C@H](C)CCC3)C2 [Example 876, (1r,2′S,4S)-4-(3-chloroanilino)-6′-(2-methoxyphenyl)-2′-[(2R)-2-methyl-3-{[(5R)-5-methyl-5,6,7,8-tetrahydroquinolin-4-yl]oxy}propyl]-2′,3′-dihydrospiro[cyclohexane-1,1′-indene]-4-carboxylic acid] | – | 9.40 | – | 6.51 | –
CC(C)[C@@H]1CCOc2cc3c(cc2O1)C[C@H](C[C@@H](C)COc1ccnc2c1[C@H](C)CCC2)[C@]31CC[C@](Nc2cccc(Cl)c2)(C(=O)O)CC1 [Example 997, (1r,2′S,4S,8′S)-4-(3-chloroanilino)-8′-[(2R)-2-methyl-3-{[(5R)-5-methyl-5,6,7,8-tetrahydroquinolin-4-yl]oxy}propyl]-2′-(propan-2-yl)-3′,4′,8′,9′-tetrahydro-2′H-spiro[cyclohexane-1,7′-indeno[5,6-b][1,4]dioxepine]-4-carboxylic acid] | – | 8.38 | – | 6.02 | –
CCN(CC)C(=O)OCOC(=O)[C@]1(Nc2cccc(Cl)c2)CC[C@@]2(CC1)c1cc3c(cc1C[C@@H]2C[C@@H](C)COc1ccnc2c1[C@H](C)CCC2)OCO3 [Example 950, [(diethylcarbamoyl)oxy]methyl (1r,4S,6′S)-4-(3-chloroanilino)-6′-[(2R)-2-methyl-3-{[(5R)-5-methyl-5,6,7,8-tetrahydroquinolin-4-yl]oxy}propyl]-6′,7′-dihydro-2′H-spiro[cyclohexane-1,5′-indeno[5,6-d][1,3]dioxole]-4-carboxylate] | – | – | 7.1% | < 4.52 | –
C[C@@H](COc1ccnc2c1[C@H](C)CCC2)C[C@H]1Cc2cc3c(cc2[C@]12CC[C@@](Nc1cccc(Cl)c1)(C(=O)O)CC2)O[C@H](C)CO3 [Example 973, (1r,3′R,4S,7′S)-4-(3-chloroanilino)-3′-methyl-7′-[(2R)-2-methyl-3-{[(5R)-5-methyl-5,6,7,8-tetrahydroquinolin-4-yl]oxy}propyl]-2′,3′,7′,8′-tetrahydrospiro[cyclohexane-1,6′-indeno[5,6-b][1,4]dioxine]-4-carboxylic acid] | – | 10.93 | – | 7.46 | –
C[C@@H](COc1ccnc2c1[C@H](C)CCC2)C[C@H]1Cc2cc3c(cc2[C@]12CC[C@@](Nc1cccc(Cl)c1)(C(=O)OCOP(=O)(O)O)CC2)OCO3 [Example 952, (phosphonooxy)methyl (1r,4S,6′S)-4-(3-chloroanilino)-6′-[(2R)-2-methyl-3-{[(5R)-5-methyl-5,6,7,8-tetrahydroquinolin-4-yl]oxy}propyl]-6′,7′-dihydro-2′H-spiro[cyclohexane-1,5′-indeno[5,6-d][1,3]dioxole]-4-carboxylate] | – | 9.43 | – | 7.02 | –
C[C@@H](COc1ccnc2c1[C@H](C)CCC2)C[C@H]1Cc2ccc(OC3CCCC3)cc2[C@]12CC[C@@](Nc1cccc(Cl)c1)(C(=O)O)CC2 [Example 789, (1r,2′S,4S)-4-(3-chloroanilino)-6′-(cyclopentyloxy)-2′-[(2R)-2-methyl-3-{[(5R)-5-methyl-5,6,7,8-tetrahydroquinolin-4-yl]oxy}propyl]-2′,3′-dihydrospiro[cyclohexane-1,1′-indene]-4-carboxylic acid] | – | 9.87 | – | 6.57 | –
CC1COc2cc3c(cc2OC1)[C@]1(CC[C@@](Nc2cccc(Cl)c2)(C(=O)O)CC1)[C@@H](C[C@@H](C)COc1ccnc2c1[C@H](C)CCC2)C3 (single isomer, unassigned) [Example 982] | – | 10.58 | – | – | 6.80
